The text below walks through data of patent US7655237B2, “Use of soluble CD14 for treatment of type 2 diabetes mellitus” (Bridge Bioresearch Limited, priority 2003, dated 2010).

One data set relates to LPS. The note with it: biotinylated LPS binding to sCD14-coated wells, cited from earlier work.
Another data set deals with C57BL/6J ob/ob mice. Put plainly: treatment of insulin-resistant diabetic C57BL/6J ob/ob mice, intraperitoneal glucose tolerance test. It is filed as in vivo. The source says:
The objective of this experiment was to study the effect of systemic administration of human recombinant sCD14 (rhCD14) with respect to relevant insulin resistance parameters in experimental mice (mice C57BL/6J ob/ob).
Experimental animals: Mice strains C57BL/6J ob/ob (The Jackson lab.). Males of 10 weeks old. These animals had obesity with hyperphagia, hyperinsulinemia (the presence of excess insulin in the blood), insulin resistance and moderate hyperglycemia (an excess of sugar in the blood).
Treatment of the mice with rhCD14: rhCD14 was continuously infused for 12 days by use of Alzet® pumps (pump 1002, 100 μl) implanted subcutaneously on the back of the animals. 20 mice were used. 10 with rhCD14 and 10 with saline serum (control). The dose was 1 μg/g weight of mice/day and it was administrated subcutaneously for 12 days.
Assay for glucose tolerance: Finalized the 12 days and after 16 hours of fasting, an intraperitoneal glucose tolerance test (GTT) was made. 2 g/kg of glucose (Glucosmon, 50%) were injected intraperitoneally. Blood samples were taken from the tail of the mice (20 μl) at 0, 15, 30, 60, 120 and 180 minutes after the glucose administration. The blood glucose levels were measured using a conventional glucometer (Menarini) and the insulin levels were meed by ELISA (Mercodia Ultrasensitive Mouse Insulin ELISA).

The subject of the next data set is C57BL/6J mice (HF mice). The data set is described as follows: treatment of insulin-resistant obese C57BL/6J mice (HF mice), glucose tolerance test. It is filed as in vivo. The following applies: HF diet obese mice. The source says: The objective of this experiment was to study the effect of systemic administration of human recombinant sCD14 (rhCD14) with respect to relevant insulin resistance parameters in experimental mice (C57BL/6J mice (HF mice).
Experiential animals: Male mice strains C57BL/6J (HF mice) C(he Jackson lab.). These animals had obesity.
Treatment of the mice with rhCD14: Male C57BL/6J mice were fed a HF diet (Harlan Teklad No. 88137: 21% by wt and 42% kcal from fat) for 26-28 weeks. The last 12 days, mice received a dose of 1 μg/g bw per day of hCD14 in two injections (0.5 μg/g each one) every 12 hours. The control group was treated with vehicle (saline serum) alone. Each group contained 9 mice.
Assay for Glucose Tolerance: As in Example 1.

Where two headings read alike, the source gives them in different places.

For “AELQQWLKPGLKVLSIAQAHSLNFSC (mammalian) [peptide]”, the entries for the “inhibition of LPS binding” value with LPS (concentration 1.7 μM) and with LPS (concentration 7 μM) were 72% and 84%, respectively.
“rhCD14: human recombinant soluble CD14 glycoprotein, binds bacterial lipopolysaccharide (LPS)”: the “basal levels of serum glucose compared to the control group” value with C57BL/6J ob/ob mice (1 μg/g/day s.c. for 12 days) and with C57BL/6J mice (HF mice) (1 μg/g bw per day in two injections for 12 days) was “decreased” in each case. Moreover, the entries for the “concentrations of serum insulin” value with C57BL/6J ob/ob mice (1 μg/g/day s.c. for 12 days) and with C57BL/6J mice (HF mice) (1 μg/g bw per day for 12 days) were “also decreased” and “increased”, respectively. In the data set on C57BL/6J ob/ob mice (1 μg/g/day s.c. infusion for 12 days, 16 hours fasting, mean±SEM, control 242±30, P=0.02), this substance displayed a fasting blood glucose of 153 ± 14 mg/dL. Moreover, the “body weight, treated vs controls” value with C57BL/6J ob/ob mice (12 days treatment) and with C57BL/6J mice (HF mice) (12 days treatment) was “did not produce significant changes” in each case. The “glucose curves in GTT, treated vs control (two-way ANOVA)” value is “significant difference” in the data set on C57BL/6J ob/ob mice (i.p. GTT 2 g/kg glucose, 0-180 min, P<0.02) and “significant difference” in the data set on C57BL/6J mice (HF mice) (P<0.002). Besides, the “insulin curves in GTT, treated vs control (two-way ANOVA)” value in the data set on C57BL/6J ob/ob mice (i.p. GTT, P<0.0001) was “significant difference”; in the data set with C57BL/6J mice (HF mice) (P<0.0001), “significant difference”. Further, the “inhibition of LPS binding” value in the data set on LPS (concentration 1.7 μM) was 84%.
